Experimental data as given in patent US20120010178A1, “METHODS AND COMPOUNDS FOR TREATMENT OF NEURODEGENERATIVE DISORDERS” (PRESIDENT AND FELLOWS OF HARVARD COLLEGE, priority 2008, published 2012).
“Also recorded” adds a separate entry of the source.

Experiments:
[1] = target: T1, GSK3b (Ser-9 phosphorylation) (Homo sapiens, UniProt P49841); assay: p-GSK(Ser9) phosphorylation in patient fibroblasts (western blot / immunofluorescence); format: cell-based; settings: patient fibroblasts
T1 construct: endogenous in cells; host or cells: SMA patient fibroblasts (GM09677), starved in 0.5% FBS before treatment
T1 sequence (P49841 whole entry): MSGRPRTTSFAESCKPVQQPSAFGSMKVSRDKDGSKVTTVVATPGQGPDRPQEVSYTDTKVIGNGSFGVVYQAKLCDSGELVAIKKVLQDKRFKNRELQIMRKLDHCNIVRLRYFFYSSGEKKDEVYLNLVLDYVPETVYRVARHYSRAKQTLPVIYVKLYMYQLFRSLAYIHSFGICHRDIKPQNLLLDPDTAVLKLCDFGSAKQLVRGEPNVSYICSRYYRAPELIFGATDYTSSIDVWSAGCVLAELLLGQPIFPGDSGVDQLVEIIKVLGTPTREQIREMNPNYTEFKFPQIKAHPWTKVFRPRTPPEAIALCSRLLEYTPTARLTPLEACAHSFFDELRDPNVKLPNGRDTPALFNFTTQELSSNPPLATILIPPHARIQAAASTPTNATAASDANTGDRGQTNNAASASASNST
Protocol: Compounds were stored at appropriate temperature and dissolved accordingly to the manufacturers (Tocris, Enzo, EMD and Sigma-Aldrich) in DMSO (Sigma-Aldrich), unless stated otherwise (Monensin Na in EtOH, DMPQ in water). Growth factors and PDGF neutralizing antibodies (R&D Systems) were reconstituted with buffers recommended by the supplier. For generation of the dose curves, 1×10^3 fibroblasts were plated on to 96-well Greiner Senso plates (VWR) and treated with compounds on the second day then fixed and stained at the indicated time points. For GSK inhibitors and performing p-GSK3b(Ser9) detection, two days after plating growth media containing 5% FBS was replaced to the media with FBS reduced down to 0.5%, to starve cells for 72 hours. Addition of the GSK inhibitors was done in 5% FBS enriched media. As previously described, starvation increases levels of constitutively activate GSK3b kinase, allowing to achieve a more dramatic inhibitory effect when GSK inhibitors are added together with growth factors that are also known to inhibit GSK by Ser-9 phosphorylation. […] For all compounds and growth factors control wells received solvent in amount equivalent to the highest concentration of the compound in a dose curve. For PDGF inhibitory studies, cells were pre-treated with kinase inhibitors for 2 hours and PDGF was added with a fresh kinase inhibitor solution and incubated for an additional 3 days.

SMN [2] = assay: SMN immunofluorescence quantification (cytoplasm, nucleus, GEMs) in fibroblasts from SMA patients; format: cell-based, human; settings: for levels of cytoplasmic and nuclear SMN (in words): substance alone
How it was run: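 SMN immunostained and imaged by automated confocal microscopy; per-cell cytoplasmic and nuclear SMN intensity and GEM number and intensity quantified. PFA fixation used for screening.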

SMN [3] = assay: SMN levels in mouse (ES-cell derived) motor neurons; format: cell-based; settings: for SMN levels in motor neurons (in words): mouse motor neurons
Protocol: Mouse HB9-GFP derived SMN deficient motor neuron cells were incubated for 2 days with compounds from libraries and collections.
Motor neurons were produced from mouse ES-cells expressing cherry fluorescent protein (CFP) under the control of the motor neuron-selective Hb9 promoter, as previously described (Wichterle et al., 2002).
GFP expressing motor neurons were derived from mouse ES cells as described below. After growing for approximately 1 week, motor neurons were treated with allsterpaullone. Two days after treatment with allsterpaullone, cells were fixed and stained with SMN antibody or GFP antibody.
mES cells were differentiated into motor neurons according to methods adapted from Wichterle et. al., Cell (2002), 110:385-397. Briefly, mES cells were grown to 70-80% confluence in 10-cm plates (Falcon) in ES cell medium. To form embryoid bodies, cells were washed once with PBS to eliminate mES medium and then incubated with 1 ml of 0.25% trypsin (GIBCO) for 5-10 min at 21-25° C. (RT). Cells were then resuspended in 10 ml of DM1 medium (DMEM-F12, GIBCO), 10% knockout serum (GIBCO), penicillin, streptomycin, glutamine (GIBCO) and 2-mercaptoethanol (GIBCO), counted and plated at a concentration of 200,000 cells per ml in Petri dishes (Falcon). Two days later, embryoid bodies were collected and resuspended into new Petri dishes containing DM1 medium supplemented with RAc (100 nM; stock 1 mM in DMSO, Sigma) and HhAg (100 nM). […] treatment was repeated with the same concentration of RAc (100 nM) and high concentration of HhAg (1 μM). On day 6, the embryoid bodies were collected in a 15-ml Falcon tube, and incubated in Earle's balanced salt solution with 20 units of Papain and 1,000 units of DNase I (Worthington Biochemical) for 10 min at 37° C. The mixture was then triturated with a 10-ml pipette and centrifugated for 5 min at 800 rpm. The resulting cell pellet was washed with PBS and resuspended in F12 medium (F12 medium, GIBCO) with 2% fetal bovine serum (GIBCO), B-27 supplement (GIBCO), (GDNF and BDNF, 20 ng ml^−1, R&D Systems). The cells were counted and plated on poly-ornithine coated 96-well plates (VWR).

Molecule | p-GSK-Ser9 phosphorylation (in words) [1] | levels of cytoplasmic and nuclear SMN (in words) (SMN [2]; SMA patient fibroblasts) | levels of cytoplasmic and nuclear SMN (in words) (SMN [2]; SMA patient fibroblasts, listed as alsterpaullone) | effect on SMN level (SMN [2]; fed cells (10% serum, not starved)) | effect on SMN level (SMN [2]; pre-starved cells that received fresh media with 10% serum along with compound) [fold] | effect on SMN level (SMN [2]; pre/post-starved cells (0.5% serum)) [fold] | Gem intensity in neurons (in words) (SMN [3]; ES-cell derived neurons) | SMN levels in motor neurons (in words) (SMN [3]) | SMN levels in motor neurons (in words) (SMN [3]; listed as allsterpaullone) | fold increase in cytoplasmic SMN (SMN [2]; SMA patient fibroblasts) [fold] | fold increase in nuclear SMN (SMN [2]; SMA patient fibroblasts) [fold] | levels of cytoplasmic and nuclear SMN (in words) (SMN [2]; SMA patient fibroblasts, listed as platelet derived PDGF) | Avg. SMN fold increase (SMN [2]; human PDGF isoforms, SMA patient fibroblasts)
O=C1Cc2c([nH]c3ccc([N+](=O)[O-])cc23)-c2ccccc2N1 [Alsterpaullone] | increase in a dose dependent manner | increase SMN levels; also recorded: Most active compounds | able to elevate SMN in patient fibroblasts | weak effect | 1.9 | 1.6 | increases Gem intensity in neurons; also recorded: main increase was observed in Gem Intensity parameter | increases level of SMN in neurons; also recorded: able to elevate Smn | Increased SMN levels | – | – | – | –
PDGF | phosphorylates GSK313 in a dose-dependent manner | increase in SMN levels | – | – | – | – | – | no effect on elevating SMN | – | 2.3 | 1.95 | strongest activator | 2-2.3 fold
